Results as given in patent EP4342905B1, “1,N6-ETHENOADENOSINE DERIVATIVES FOR CANCER TREATMENT” (PHILIPPS-UNIVERSITÄT MARBURG, priority 2022, dated 2024).
Counter-ions that a name gives are not always drawn.

Columns and labels:
Panc-1 cells = assay: CellTiter-Glo Luminescent Cell Viability Assay, Panc-1 as PDAC model; type: cell-based, human; details: for IC50: Panc-1 cells, 72 h compound incubation, mean ± SD of at least three independent biological repeats; for activity against human Panc-1 pancreatic carcinoma cells compared to gemcitabine: comparison with gemcitabine
Procedure: The biological antitumor-activity of adenosine derivatives according to Formula I towards pancreatic ductal adenocarcinoma (PDAC) was evaluated by utilizing the established cell line Panc-1 as a PDAC model by applying the CellTiter-Glo® Luminescent Cell Viability Assay (Promega) after 72 h of compound incubation. Gemcitabine (100 µM) was used as a positive control. To analyze the cytotoxic efficacy in Panc-1 cells, dose-response curves were generated for each compound, starting from a concentration of 100 µM with serial dilution of 1:3. IC50 values are shown as arithmetic means of at least three independent biological repeats in following Table 1. Table 1: IC50-Values for the inhibition of PADC by adenosine and 1,N6-ethenoadenosine derivatives (with the respective standard deviations SD)

[1] = logPOW determination, water/1-octanol distribution with UV/VIS readout; type: physicochemical; details: 1 h stirring, room temperature (23 °C), ratio of maximal UV absorbances; for logP at 1 h: read-out: logPOW (measured)
Procedure: All logPOW values reported herein are determined as follows: 2 mg of the compound to be measured are distributed in a 250 ml beaker between a two-phase mixture of water (50 ml) and 1-octanol (50 ml) and stirred for 1 h on a magnetic stirrer at room temperature (23 °C). After separation of the layers, 3 ml of each phase are removed and transferred into a 3.5 ml quartz cuvette (10 x 10 mm, 3500 µl; Hellma, Darmstadt, Germany) and measured on a UV/VIS spectrometer (Cary 50, Varian, Darmstadt, Germany). From the ratio of maximal absorbances in both layers (λmax) the corresponding log10POW values are determined.

Structure (SMILES)	IC50 (Panc-1 cells; Homo sapiens)	activity against human Panc-1 pancreatic carcinoma cells compared to gemcitabine (Panc-1 cells)	logPOW (measured) [1]	logP at 1 h [1]	IC50 (Panc-1 cells)
CCCCCCCC1(CCCCCCC)O[C@@H]2[C@H](O1)[C@@H](CO)O[C@H]2n1cnc2c(N)ncnc21 [Compound 2a, ((3aR,4R,6R,6aR)-6-(6-amino-9H-purin-9-yl)-2,2-diheptyltetrahydrofuro[3,4-d][1,3]dioxol-4-yl)methanol]	14.58 ± 0.14 µM	more active	2.82	2.82	
CCCCCCCCC1(CCCCCCCC)O[C@@H]2[C@H](O1)[C@@H](CO)O[C@H]2n1cnc2c(N)ncnc21 [Compound 2b, ((3aR,4R,6R,6aR)-6-(6-amino-9H-purin-9-yl)-2,2-dioctyltetrahydrofuro[3,4-d][1,3]dioxol-4-yl)methanol]			3.86	3.86	
CCCCCCCCCCCCCC1(C)O[C@@H]2[C@H](O1)[C@@H](CO)O[C@H]2n1cnc2c(N)ncnc21 (stereo partly drawn) [Compound 2c, ((2R/2S,3aR,4R,6R,6aR)-6-(6-amino-9H-purin-9-yl)-2-methyl-2-tridecyltetrahydrofuro[3,4-d][1,3]dioxol-4-yl)methanol]			2.83		
CCCCCCCCCCCCCC1(CC)O[C@@H]2[C@H](O1)[C@@H](CO)O[C@H]2n1cnc2c(N)ncnc21 (stereo partly drawn) [Compound 2d, ((2R/2S,3aR,4R,6R,6aR)-6-(6-amino-9H-purin-9-yl)-2-ethyl-2-tridecyltetrahydrofuro[3,4-d][1,3]dioxol-4-yl)methanol]		more active	3.60		14.6 ± 0.69 µM
CCCCCCCC1(CCCCCCC)O[C@@H]2[C@H](O1)[C@@H](CO)O[C@H]2n1cnc2c1ncn1ccnc21.Cl [Compound 4a, ((3aR,4R,6R,6aR)-6-(3H-imidazo[2,1-i]purin-3-yl)-2,2-diheptyltetrahydrofuro[3,4-d][1,3]dioxol-4-yl)methanol Hydrochloride]	17.1 ± 3.14 µM		2.40	2.4	
CCCCCCCCC1(CCCCCCCC)O[C@@H]2[C@H](O1)[C@@H](CO)O[C@H]2n1cnc2c1ncn1ccnc21 [Compound 4b, ((3aR,4R,6R,6aR)-6-(3H-imidazo[2,1-i]purin-3-yl)-2,2-dioctyitetrahydrofuro[3,4-d][1,3]dioxol-4-yl)methanol Hydrochloride]	16.2 ± 1.35 µM	more active	2.57	2.57	
CCCCCCCCCCCCCC1(C)O[C@@H]2[C@H](O1)[C@@H](CO)O[C@H]2n1cnc2c(N)ncnc21.Cl (stereo partly drawn) [Compound 4c, ((2R/2S,3aR,4R,6R,6aR)-6-(6-amino-9H-purin-9-yl)-2-methyl-2-tridecyltetrahydrofuro[3,4-d][1,3]dioxol-4-yl)methanol Hydrochloride]		more active	2.75		30.6 ± 2.53 µM
CCCCCCCCCCCCCC1(CC)O[C@@H]2[C@H](O1)[C@@H](CO)O[C@H]2n1cnc2c1ncn1ccnc21.Cl (stereo partly drawn) [Compound 4d, ((2R/2S,3aR,4R,6R,6aR)-6-(3H-imidazo[2,1-i]purin-3-yl)-2-ethyl-2-tridecyltetrahydrofuro[3,4-d][1,3]dioxol-4-yl)methanol Hydrochloride]			2.29		16 ± 4.31 µM
Cl.OC[C@H]1O[C@@H](n2cnc3c2ncn2ccnc32)[C@@H]2OC3(CCCCCCCCCCCCCC3)O[C@@H]21 [Compound 5, ((3a'R,4'R,6'R,6a'R)-4'-(3H-imidazo[2,1-i]purin-3-yl)tetrahydrospiro[cyclopentadecane-1,2'-furo[3,4-d][1,3]dioxol]-6'-yl)methanol Hydrochloride]	23.1 ± 3.6 µM		1.67	1.67	
